Test results taken from PubChem BioAssay (NCI).
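Briefly, cells in 96-well plates were exposed to five compound concentrations for 48 h, and endpoints were estimated by linear interpolation. GI50 is the concentration that inhibits growth by half. TGI marks complete inhibition of growth.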

Legend:
Test in all cases: NCI anticancer screen, dose series, 48 h
NCI-H460 lung = tested on: NCI-H460 lung
RPMI-8226 leukemia = tested on: RPMI-8226 leukemia
SK-MEL-28 melanoma = tested on: SK-MEL-28 melanoma
HOP-92 NSCLC = tested on: HOP-92 NSCLC
KM12 colon = tested on: KM12 colon
SNB-75 CNS = tested on: SNB-75 CNS
SW-620 colon = tested on: SW-620 colon
OVCAR-3 ovarian = tested on: OVCAR-3 ovarian
SK-MEL-5 melanoma = tested on: SK-MEL-5 melanoma
TK-10 renal = tested on: TK-10 renal

SMILES	TGI (NCI-H460 lung) [µM]	TGI (RPMI-8226 leukemia) [µM]	TGI (SK-MEL-28 melanoma) [µM]	TGI (HOP-92 NSCLC) [µM]	TGI (KM12 colon) [µM]	TGI (SNB-75 CNS) [µM]	TGI (SW-620 colon) [µM]	TGI (OVCAR-3 ovarian) [µM]	TGI (SK-MEL-5 melanoma) [µM]	TGI (TK-10 renal) [µM]	GI50 (NCI-H460 lung) [µM]	GI50 (RPMI-8226 leukemia) [µM]	GI50 (SK-MEL-28 melanoma) [nM]	GI50 (HOP-92 NSCLC) [nM]	GI50 (KM12 colon) [µM]	GI50 (SNB-75 CNS) [nM]	GI50 (SW-620 colon) [µM]	GI50 (OVCAR-3 ovarian) [µM]	GI50 (SK-MEL-5 melanoma) [nM]	GI50 (TK-10 renal) [µM]
CC1(C)CC(=O)C=C(NC(=O)c2ccccc2)C1	> 100	> 100	> 100	> 100	> 100	> 100	> 100	> 100	> 100	> 100										
Nc1ccc(C(=O)N/C(=C\c2ccc3c(c2)OCO3)c2nc3ccc4c(c3[nH]2)C(=O)c2ccccc2C4=O)cc1	> 100	> 100	78.5	95.7	> 100	57.8	> 100	> 100	> 100	85.7										
Cc1cncc2cccc(S(=O)(=O)N3CCCNC[C@@H]3C)c12	> 100	> 100	> 100	> 100	> 100	6.52	> 100	> 100	> 100	84.4	8.81	42.8	> 100000	108	15.2	214	8.06	58.9	> 64100	9.18
C=C1C(=O)O[C@H]2[C@H]1CC/C(COC(=O)c1ccc(Br)cc1)=C\CC[C@@]1(C)O[C@@H]21	4.3	3.85	3.39	3.29	3.66	2.41	2.87	2.24	3.28	3.33	1.99	0.543	1700	1720	1.8	1160	1.08	1.02	1810	1.9
